This note sets out measurements from patent US9938262B2, “Benzamides” (Merck Patent GmbH, priority 2011, dated 2018).

Like-named read-outs stand apart in the source and are kept apart here. Some results are limits rather than exact numbers.

The target in one experiment is T1, FSHR (Homo sapiens, UniProt P23945).
T1 construct: expressed in transfected cells; host or cells: CHO (Cho-FSHR-LUC-1-1-43)
The experiment can be described thus: EC50 of cyclic AMP production in CHO FSHR cells + EC20 FSH (Assay A). Format: cell-based. Conditions: for EC50: CHO FSHR cells + EC20 FSH, read-out: Assay A EC50 of cyclic AMP production. Put shortly: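 cAMP HTRF ratio (665/620 nm) read after 1 h, 37 °C exposure of CHO-FSHR cells to compound in presence of EC20 FSH ([…]) and IBMX 200 μM. Responses given relative to FSH standard maximum; EC50 derived.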

The target in experiment [1] is T2, follicle-stimulating hormone (FSH) receptor (Rattus norvegicus, UniProt P20395).
T2 construct: endogenous in cells; host or cells: rat granulosa cells
T2 sequence (P20395 18-692): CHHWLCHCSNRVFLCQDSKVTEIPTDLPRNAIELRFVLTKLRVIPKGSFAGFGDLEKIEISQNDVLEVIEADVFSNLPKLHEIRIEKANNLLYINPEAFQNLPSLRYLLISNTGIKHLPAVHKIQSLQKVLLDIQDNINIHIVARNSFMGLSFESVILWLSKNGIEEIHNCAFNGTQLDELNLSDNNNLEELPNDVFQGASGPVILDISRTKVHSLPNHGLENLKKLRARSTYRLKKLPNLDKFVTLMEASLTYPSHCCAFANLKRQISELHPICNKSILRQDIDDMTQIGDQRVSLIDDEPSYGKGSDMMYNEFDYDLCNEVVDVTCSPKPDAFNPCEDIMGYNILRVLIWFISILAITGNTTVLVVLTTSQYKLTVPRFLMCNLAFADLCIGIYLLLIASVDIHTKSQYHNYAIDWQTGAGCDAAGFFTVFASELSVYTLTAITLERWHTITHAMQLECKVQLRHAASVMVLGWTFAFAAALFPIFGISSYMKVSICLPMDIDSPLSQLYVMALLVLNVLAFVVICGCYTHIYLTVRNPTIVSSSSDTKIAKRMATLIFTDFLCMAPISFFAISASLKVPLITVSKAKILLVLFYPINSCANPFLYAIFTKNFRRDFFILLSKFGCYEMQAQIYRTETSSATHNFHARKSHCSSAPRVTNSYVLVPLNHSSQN
The experiment in a line: Rat granulosa EC50 FSH (Assay B). It counts as cell-based. Conditions: rat granulosa cells. Here is the method: Example 11: Rat Granulosa EC50 FSH (Assay B)
The assay was performed pursuant to the teaching of Yanofsky et al. (2006) Allosteric activation of the follicle-stimulating hormone (FSH) receptor by selective, nonpeptide agonists. JBC 281(19): 13226-13233, which is incorporated by reference in the disclosure of the invention.

T1 sequence (P23945 18-695): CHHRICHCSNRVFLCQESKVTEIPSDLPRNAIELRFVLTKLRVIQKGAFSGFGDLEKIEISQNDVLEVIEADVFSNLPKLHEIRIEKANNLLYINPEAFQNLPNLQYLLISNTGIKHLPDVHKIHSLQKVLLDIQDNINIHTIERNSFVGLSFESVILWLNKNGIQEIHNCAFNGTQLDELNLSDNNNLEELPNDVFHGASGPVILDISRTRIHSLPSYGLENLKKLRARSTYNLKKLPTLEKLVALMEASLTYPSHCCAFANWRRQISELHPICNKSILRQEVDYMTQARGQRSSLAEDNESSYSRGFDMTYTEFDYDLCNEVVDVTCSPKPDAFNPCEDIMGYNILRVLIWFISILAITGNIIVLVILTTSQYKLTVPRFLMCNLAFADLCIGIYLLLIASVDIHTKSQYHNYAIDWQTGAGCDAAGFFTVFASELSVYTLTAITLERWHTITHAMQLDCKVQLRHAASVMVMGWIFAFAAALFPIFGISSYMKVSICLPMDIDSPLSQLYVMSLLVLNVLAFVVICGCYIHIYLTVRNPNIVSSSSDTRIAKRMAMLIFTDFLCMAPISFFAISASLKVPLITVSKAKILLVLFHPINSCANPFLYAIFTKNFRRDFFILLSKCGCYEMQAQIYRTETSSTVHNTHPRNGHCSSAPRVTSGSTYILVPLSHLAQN
T1 sequence (P01215 25-116 partner): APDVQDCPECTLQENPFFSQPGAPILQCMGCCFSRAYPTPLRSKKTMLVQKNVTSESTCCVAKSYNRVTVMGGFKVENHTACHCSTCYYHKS
T1 sequence (P01225 19-129 partner): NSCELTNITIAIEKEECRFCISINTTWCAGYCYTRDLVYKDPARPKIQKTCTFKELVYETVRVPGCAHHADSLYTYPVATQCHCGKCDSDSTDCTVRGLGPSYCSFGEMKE

What is called EC50 is the midpoint of the concentration-response curve. On to `Cc1ccccc1N1CCN(c2ccc(C(=O)NCCCN3CCCC3=O)cc2NS(=O)(=O)c2cccc3cccnc23)CC1` [Compound 45], for which the EC50 (at FSHR (Table 1); in experiment [1] (Table 1)) was 100 to 1000 nM in each case.
Consider `Cc1ccnc(N2CCN(c3ccc(C(=O)NCCCN4CCCC4=O)cc3NC(=O)c3coc(C4CC4)n3)CC2)c1` [Compound 529], for which the EC50 at FSHR (Table 2) lay in the range of 100 to 1000 nM; in experiment [1] (Table 2), 1000 to 10000 nM.
As for `Cc1ccccc1N1CCN(c2ccc(C(=O)NCCc3cccc(C(N)=O)c3)cc2NC(=O)c2ccco2)CC1` [Compound 188], the EC50 (on FSHR (Table 1); in experiment [1] (Table 1)) was 100 to 1000 nM in each case.
As to `Cc1ccccc1N1CCN(c2ccc(C(=O)NCc3cccc(CN(C)C)c3)cc2NC(=O)c2ccco2)CC1` [Compound 320], the EC50 (on FSHR (Table 2); in experiment [1] (Table 2)) was 100 to 1000 nM throughout.
Take `Cc1ccccc1N1CCN(c2ccc(C(=O)N[C@H]3O[C@@H](CO)[C@H](O)[C@@H]3O)cc2NC(=O)c2coc(C3CC3)n2)CC1` [Compound 311]: the EC50 (at FSHR (Table 2); in experiment [1] (Table 2)) was 100 to 1000 nM throughout.
Regarding `Cc1ccccc1N1CCN(c2ccc(C(=O)NCCCN3CCCC3=O)cc2NC(=O)c2ccc(F)cn2)CC1` [Compound 128], the EC50 (at FSHR (Table 1); in experiment [1] (Table 1)) was 100 to 1000 nM in each case.
With `Cc1ccccc1N1CCN(c2ccc(C(=O)NCc3cccc(C(N)=O)c3)cc2NC(=O)c2ccco2)CC1` [Compound 189], the figures for the EC50 (at FSHR (Table 1); in experiment [1] (Table 1)) were below 100 nM and 100 to 1000 nM, respectively.
`Cc1ccccc1N1CCN(c2ccc(C(=O)NCCCN3CCCC3=O)cc2NCc2ccccn2)CC1` [Compound 526]: the EC50 at FSHR (Table 2) is 100 to 1000 nM; in experiment [1] (Table 2) it was above 10000 nM.
Consider `Cc1ccccc1N1CCN(c2ccc(C(=O)NCCCN3C(=O)CCC3=O)cc2NC(=O)c2ccco2)CC1` [Compound 147], for which the EC50 (on FSHR (Table 1); in experiment [1] (Table 1)) was 100 to 1000 nM in each case.
Molecule `Cc1ccccc1N1CCN(c2ccc(C(=O)NCCCC3CCOC3)cc2NC(=O)c2ccco2)CC1` (stereo not drawn) [Compound 158] displayed an EC50 in experiment [1] (Table 1) of 100 to 1000 nM.
Take `Cc1ncc(C(=O)Nc2cc(C(=O)NCCCN3CCCC3=O)ccc2N2CCN(c3ccccc3C)CC2)o1` [Compound 349]: the EC50 is 100 to 1000 nM on FSHR (Table 2) and 1000 to 10000 nM in experiment [1] (Table 2).
Take `Cc1ccccc1N1CCN(c2ccc(C(=O)NC3CCN(S(C)(=O)=O)CC3)cc2NC(=O)c2ccco2)CC1` [Compound 58, Furan-2-carboxylic acid [5-(1-methanesulfonyl-piperidin-4-ylcarbamoyl)-2-(4-o-tolyl-piperazin-1-yl)-phenyl]-amide]: the EC50 at FSHR (Table 1) was 100 to 1000 nM. In experiment [1] (5 μM, Table 1), the “Assay B % at 5 μM” value is reported as 27%.
For `Cc1ccccc1N1CCN(c2ccc(C(=O)NCCc3cccc(C(N)=O)c3)cc2NC(=O)c2coc(C3CC3)n2)CC1` [Compound 307], the EC50 at FSHR (Table 2) fell in the range of 100 to 1000 nM; in experiment [1] (Table 2) it was 1000 to 10000 nM.
On to `Cc1ccccc1N1CCN(c2ccc(C(=O)NCCCN3CCCC3=O)cc2NC(=O)c2ccccc2F)CC1` [Compound 85], for which the EC50 on FSHR (Table 1) was in the range of 100 to 1000 nM; in experiment [1] (Table 1), 1000 to 10000 nM.
On the same counts, the results for `Cc1ccccc1N1CCN(c2ccc(C(=O)NCCCN3CCCC3=O)cc2NC(=O)c2ccco2)CC1` [Compound 2] are below 100 nM and 1000 to 10000 nM.
On the same counts, the results for `Cc1ccccc1N1CCN(c2ccc(C(=O)NCCCN3CCCC3=O)cc2NC(=O)c2coc(Cl)n2)CC1` [Compound 207] are 100 to 1000 nM and 100 to 1000 nM.
Turning to `Cc1ccc(C(=O)Nc2cc(C(=O)NCCCN3CCCC3=O)ccc2N2CCN(c3ccccc3C(F)(F)F)CC2)o1` [Compound 246], the EC50 (on FSHR (Table 1); in experiment [1] (Table 1)) was 1000 to 10000 nM throughout.
In the case of `Cc1ccc(C(=O)Nc2cc(C(=O)NCCCN3CCCC3=O)ccc2N2CCN(c3ccccc3C)CC2)o1` [Compound 6], the half-maximal effective concentration (EC50) in experiment [1] (Table 1) lay within 100 to 1000 nM.
With `Cc1ccccc1N1CCN(c2ccc(C(=O)NCCCN3CCCC3=O)cc2NC(=O)c2ccccc2)CC1` [Compound 27], the EC50 in experiment [1] (Table 1) was 1000 to 10000 nM.
Molecule `Cc1ccccc1N1CCN(c2ccc(C(=O)NCCCN3CCCC3=O)cc2NC(=O)C2CC2)CC1` [Compound 84] came in with an EC50 in experiment [1] (Table 1) of 100 to 1000 nM.
`Cc1ccccc1N1CCN(c2ccc(C(=O)NCCCN3CCCC3=O)cc2NC(=O)c2ccccn2)CC1` [Compound 36]: in experiment [1] (Table 1), the EC50 fell in the range of 100 to 1000 nM.
With `Cc1ccccc1N1CCN(c2ccc(C(=O)NCCCN3CCCC3=O)cc2NC(=O)c2occc2C)CC1` [Compound 5], the EC50 in experiment [1] (Table 1) lay within 1000 to 10000 nM.
The molecule `Cc1nc(C(=O)Nc2cc(C(=O)NCCCN3CCCC3=O)ccc2N2CCN(c3ccccc3C)CC2)co1` [Compound 75] yielded an EC50 in experiment [1] (Table 1) above 10000 nM.
As to `Cc1ccccc1N1CCN(c2ccc(C(=O)NCCNC3CCS(=O)(=O)C3)cc2NC(=O)c2ccco2)CC1` (stereo not drawn) [Compound 387], the EC50 at FSHR (Table 2) fell in the range of 100 to 1000 nM.
Consider `Cc1ccc(C(=O)Nc2cc(C(=O)NCCN3CCN(C(=O)OC(C)(C)C)CC3)ccc2N2CCN(c3ccccc3C)CC2)o1` [Compound 214], for which the EC50 at FSHR (Table 1) was 1000 to 10000 nM.
For the molecule `Cc1csc(-c2cccc(CNC(=O)c3ccc(N4CCN(c5ccccc5C)CC4)c(NC(=O)c4ccco4)c3)c2)n1` [Compound 262], the EC50 at FSHR (Table 1) lay within 100 to 1000 nM.
Regarding `Cc1ccccc1N1CCN(c2ccc(C(=O)NCc3cccc(CN)c3)cc2NC(=O)c2ccco2)CC1` [Compound 327], at FSHR (Table 2), the EC50 is 100 to 1000 nM.
For the molecule `N#Cc1ccccc1N1CCN(c2ccc(C(=O)NCCCN3CCCC3=O)cc2NC(=O)c2coc(C3CC3)n2)CC1` [Compound 525], the EC50 on FSHR (Table 2) lay within 100 to 1000 nM.
With `Cc1ccccc1N1CCN(c2ccc(C(=O)N[C@H]3O[C@@H](CO)[C@H](O)[C@@H]3O)cc2NC(=O)c2ccco2)CC1` [Compound 222], the EC50 at FSHR (Table 1) fell in the range of 100 to 1000 nM.
In the case of `O=C(NCCCN1CCCC1=O)c1ccc(N2CCN(C(=O)C3CC3)CC2)c(NC(=O)c2coc(C3CC3)n2)c1` [Compound 431], the EC50 at FSHR (Table 2) was above 10000 nM.
On the same count and under the same terms, the figure for `Cc1ccccc1N1CCN(c2ccc(C(=O)NCCCn3ccnc3C)cc2NC(=O)c2coc(C3CC3)n2)CC1` [Compound 292] is 100 to 1000 nM.
Turning to `Cc1ccccc1N1CCN(c2ccc(C(=O)N3CCC4(CC3)COC4)cc2NC(=O)c2coc(C3CC3)n2)CC1` [Compound 571], the EC50 on FSHR (Table 2) was in the range of 100 to 1000 nM.
On to `Cc1ccccc1N1CCN(c2ccc(C(=O)NCCC(C)N3CCCC3)cc2NC(=O)c2ccco2)CC1` (stereo not drawn) [Compound 181], for which the EC50 at FSHR (Table 1) lay in the range of 1000 to 10000 nM.
`Cc1nnc(N2CCN(c3ccc(C(=O)NCCCN4CCCC4=O)cc3NC(=O)c3coc(C4CC4)n3)CC2)s1` [Compound 598]: the EC50 on FSHR (Table 2) was in the range of 1000 to 10000 nM.
On to `Cc1ccccc1N1CCN(c2ccc(C(=O)NCCCN3C(=O)CN(C)C3=O)cc2NC(=O)c2ccco2)CC1` [Compound 156], for which the EC50 at FSHR (Table 1) was 100 to 1000 nM.
As to `Cc1nc(C(F)(F)F)c(C(=O)Nc2cc(C(=O)NCCCN3CCCC3=O)ccc2N2CCN(c3ccccc3C)CC2)s1` [Compound 71], the EC50 at FSHR (Table 1) is 1000 to 10000 nM.
Turning to `COc1ccc(CNC(=O)c2ccc(N3CCN(c4ccccc4C)CC3)c(NC(=O)c3coc(C4CC4)n3)c2)cc1OC` [Compound 290], at FSHR (Table 2), the EC50 lay in the range of 100 to 1000 nM.
Regarding `Cc1ccccc1N1CCN(c2ccc(C(=O)NCCC(=O)N3CCCC3)cc2NC(=O)c2coc(C3CC3)n2)CC1` [Compound 234], the EC50 at FSHR (Table 1) was 1000 to 10000 nM.
As for `Cc1ccccc1N1CCN(c2ccc(C(=O)NCCC#N)cc2NC(=O)c2coc(C3CC3)n2)CC1` [Compound 453], the EC50 at FSHR (Table 2) was in the range of 100 to 1000 nM.
For `CCOc1cc(CCCNC(=O)c2ccc(N3CCN(c4ccccc4C)CC3)c(NC(=O)c3coc(C4CC4)n3)c2)ccc1OC` [Compound 580], at FSHR (Table 2), the EC50 was 100 to 1000 nM.
In the case of `Cc1ccc(C)c(N2CCN(c3ccc(C(=O)NCCCN4CCCC4=O)cc3NC(=O)c3ccc(C)o3)CC2)c1` [Compound 519], the EC50 at FSHR (Table 2) fell in the range of 100 to 1000 nM.
Consider `Cn1ccnc1N1CCN(c2ccc(C(=O)NCCCN3CCOC3=O)cc2NC(=O)c2coc(C3CC3)n2)CC1` [Compound 513], for which the EC50 on FSHR (Table 2) fell in the range of 1000 to 10000 nM.
For the molecule `Cc1ccccc1N1CCN(c2ccc(C(=O)NCc3cccc(CN4CCCC4)c3)cc2NC(=O)c2ccco2)CC1` [Compound 454], on FSHR (Table 2), the concentration for a half-maximal effect (EC50) lay in the range of 100 to 1000 nM.
In the case of `N#Cc1nccnc1N1CCN(c2ccc(C(=O)NCCCN3CCCC3=O)cc2NC(=O)c2coc(C3CC3)n2)CC1` [Compound 595], the EC50 on FSHR (Table 2) is 1000 to 10000 nM.
Same read-out and setting: under `Cc1ccccc1N1CCN(c2ccc(C(=O)NCCCN3C(=O)[C@@H]4C=C[C@H]3C4)cc2NC(=O)c2coc(C3CC3)n2)CC1` [Compound 352] stands 100 to 1000 nM.
Take `Cc1ccc(C(=O)Nc2cc(C(=O)NCCCCCCNC(=O)OC(C)(C)C)ccc2N2CCN(c3ccccc3C)CC2)o1` [Compound 196]: the activation at 5 µM on FSHR (1 h, 5 μM, effect relative to maximum response of the FSH standard, Table 1) worked out at 22%.
As to `Cc1ccccc1N1CCN(c2ccc(C(=O)N[C@@H](C)C(=O)NC3CCCC3)cc2NC(=O)c2ccco2)CC1` [Compound 91], the EC50 on FSHR (Table 1) lay within 1000 to 10000 nM.
